Measured values as given in DBAASP.
≈ marks a conversion by molar mass, not a printed value. Blank lines part the entries; values can stand above or below the molecule they belong to.

What was measured:
Test in all cases: ≥ marks a high value that may be exact or a test limit, other limits are often not marked, values filed in µg/mL are converted to µM
[1] = tested on: Corynebacterium glutamicum CGMCC 1.818
[2] = tested on: Alcaligenes faecalis CGMCC 1.924
[3] = tested on: Klebsiella aerogenes CGMCC 1.2021
[4] = tested on: Candida albicans CMCC 98001
[5] = tested on: Proteus vulgaris CGMCC 1.1651
[6] = tested on: Bacillus subtilis CGMCC 1.88
[7] = tested on: Penicillium sp. ATCC 30106
[8] = tested on: Escherichia coli CGMCC 1.1369
[9] = tested on: Pseudomonas aeruginosa CMCC 10104
[10] = tested on: Salmonella typhimurium CGMCC 1.1174
[11] = tested on: Providencia rettgeri CMCC 49256
[12] = tested on: Enterobacter cloacae CGMCC 1.58
[13] = tested on: Aspergillus flavus CGMCC 3.6433
[14] = tested on: Acetobacterium wieringae CGMCC 1.2033
[15] = tested on: Micrococcus luteus AB206228
[16] = tested on: Beauveria bassiana CGMCC 3.3576
[17] = tested on: Enterococcus faecalis CGMCC 1.100
[18] = tested on: Saccharomyces cerevisiae CGMCC 2.1619
[19] = tested on: Bacillus cereus CMCC 1.126
[20] = tested on: Tetragenococcus halophilus CGMCC 1.2492
[21] = tested on: Bacillus thuringiensis serovar israelensis H14
[22] = tested on: Staphylococcus xylosus ATCC 35033
Staphylococcus aureus = tested on: Staphylococcus aureus
Staphylococcus xylosus = tested on: Staphylococcus xylosus
[23] = tested on: Staphylococcus aureus CIP 53.156
Salmonella typhimurium = tested on: Salmonella typhimurium
Klebsiella pneumoniae = tested on: Klebsiella pneumoniae
Saccharomyces cerevisiae = tested on: Saccharomyces cerevisiae
[24] = tested on: Escherichia coli 363 ATCC 11775
Vibrio cholerae = tested on: Vibrio cholerae
Candida albicans = tested on: Candida albicans
[25] = tested on: Bacillus megaterium ATCC 9885
Neisseria meningitidis = tested on: Neisseria meningitidis
[26] = tested on: Salmonella enterica subsp. enterica serovar Enteritidis
[27] = tested on: Staphylococcus haemolyticus
[28] = tested on: Enterobacter cloacae ATCC 11775
Pseudomonas aeruginosa = tested on: Pseudomonas aeruginosa
[29] = tested on: Staphylococcus aureus ATCC 25923
[30] = tested on: Candida albicans ATCC 90028
[31] = tested on: Proteus mirabilis ATCC 25933
[32] = tested on: Escherichia coli ATCC 25726
[33] = tested on: Klebsiella pneumoniae ATCC 700603
[34] = tested on: Staphylococcus epidermidis RP62A/1
[35] = tested on: Staphylococcus aureus ATCC 29213
[36] = tested on: Staphylococcus epidermidis RP62A
[37] = tested on: Pseudomonas aeruginosa ATCC 27853
[38] = tested on: Stenotrophomonas maltophilia
Acinetobacter baumannii = tested on: Acinetobacter baumannii
[39] = tested on: Pseudomonas aeruginosa ATCC 9027
[40] = tested on: Escherichia coli ATCC 8739
[41] = tested on: Proteus vulgaris NCTC 4635
[42] = tested on: Bacillus subtilis ATCC 9372
[43] = tested on: Staphylococcus aureus ATCC 6538

MIC [1]: 3.1 µM (≈ 8.95 µg/mL)
MIC [2]: 3.1 µM (≈ 8.95 µg/mL)
MIC [3]: 12.5 µM (≈ 36.1 µg/mL)
MIC [4]: ≥ 50 µM
MIC [5]: 6.2 µM (≈ 17.9 µg/mL)
MIC [6]: 12.5 µM (≈ 36.1 µg/mL)
MIC [7]: 3.1 µM (≈ 8.95 µg/mL)
MIC [8]: 25 µM (≈ 72.2 µg/mL)
MIC [9]: 6.2 µM (≈ 17.9 µg/mL)
MIC [10]: 12.5 µM (≈ 36.1 µg/mL)
MIC [11]: 6.2 µM (≈ 17.9 µg/mL)
MIC [12]: ≥ 50 µM
MIC [13]: 3.1 µM (≈ 8.95 µg/mL)
MIC [14]: 3.1 µM (≈ 8.95 µg/mL)
MIC [15]: 3.1 µM (≈ 8.95 µg/mL)
MIC [16]: 6.2 µM (≈ 17.9 µg/mL)
MIC [17]: 25 µM (≈ 72.2 µg/mL)
MIC [18]: ≥ 50 µM
MIC [19]: 6.2 µM (≈ 17.9 µg/mL)
MIC [20]: 3.1 µM (≈ 8.95 µg/mL)
MIC [21]: 12.5 µM (≈ 36.1 µg/mL)
Structure (SMILES): CC[C@H](C)[C@H](NC(=O)[C@H](Cc1ccccc1)NC(=O)[C@H](CCCCN)NC(=O)[C@H](C)NC(=O)[C@@H](NC(=O)[C@H](CO)NC(=O)[C@H](CCCCN)NC(=O)[C@H](CCSC)NC(=O)[C@H](C)NC(=O)[C@H](CCCCN)NC(=O)[C@H](Cc1ccccc1)NC(=O)[C@H](Cc1c[nH]c2ccccc12)NC(=O)CNC(=O)[C@H](CCCCN)NC(=O)[C@@H](N)CCCN=C(N)N)[C@@H](C)CC)C(=O)N[C@@H](C)C(=O)N[C@@H](CCCCN)C(=O)N[C@@H](CCC(=O)O)C(=O)N[C@@H](CCCCN)C(=O)N[C@@H](CC(C)C)C(=O)N[C@@H](CCCCN)C(=O)N[C@@H](CCC(=O)O)C(=O)N[C@@H](Cc1cnc[nH]1)C(=O)N[C@@H](CC(C)C)C(=O)O [RKGWFKAMKSIAKFIAKEKLKEHL]

MIC [22]: 2.08 µM (≈ 4.6 µg/mL)
MIC (Staphylococcus aureus): 15.4 µM (≈ 34 µg/mL)
MIC (Staphylococcus xylosus): 1.35 µM (≈ 3 µg/mL)
MIC [23]: ≥ 57 µM
Structure (SMILES): CC[C@H](C)[C@H](NC(=O)[C@@H](N)CCCCN)C(=O)N[C@@H](CCCCN)C(=O)N[C@H](C(=O)N1CCC[C@H]1C(=O)N[C@@H](Cc1c[nH]c2ccccc12)C(=O)NCC(=O)N[C@@H](CCCCN)C(=O)N[C@H](C(=O)N[C@@H](CCCCN)C(=O)N[C@@H](CC(=O)O)C(=O)N[C@@H](Cc1ccccc1)C(=O)N[C@@H](CC(C)C)C(=O)N[C@H](C(=O)NCC(=O)NCC(=O)N[C@@H](CCSC)C(=O)N[C@@H](CCCCN)C(=O)N[C@@H](C)C(=O)N[C@H](C(=O)O)C(C)C)C(C)C)C(C)C)[C@@H](C)CC [KIKIPWGKVKDFLVGGMKAV]

MIC (Salmonella typhimurium): ≥ 50 µM
MIC (Klebsiella pneumoniae): 100 µM (≈ 221 µg/mL)
MIC (Saccharomyces cerevisiae): ≥ 300 µM
MIC [24]: 12.5 µM (≈ 27.6 µg/mL)
MIC (Candida albicans): 150 µM (≈ 332 µg/mL)
MIC [25]: 12.5 µM (≈ 27.6 µg/mL)
MIC (Neisseria meningitidis): ≥ 100 µM
MIC [26]: 25 µM (≈ 55.3 µg/mL)
MIC [28]: ≥ 100 µM
MIC (Pseudomonas aeruginosa): 100 µM (≈ 221 µg/mL)
MIC [29]: 50.5 µM (≈ 112 µg/mL)
Structure (SMILES): CC(C)C[C@H](NC(=O)[C@H](CC(C)C)NC(=O)[C@H](CCCCN)NC(=O)CNC(=O)[C@H](C)NC(=O)[C@@H](NC(=O)[C@H](CCCCN)NC(=O)[C@H](CC(C)C)NC(=O)[C@H](CC(C)C)NC(=O)[C@H](CC(=O)O)NC(=O)[C@@H](NC(=O)[C@@H](NC(=O)[C@@H](NC(=O)CN)C(C)C)C(C)C)[C@@H](C)O)[C@@H](C)O)C(=O)NCC(=O)N[C@@H](CC(N)=O)C(=O)N[C@@H](CC(C)C)C(=O)N[C@H](C(=O)NCC(=O)N[C@@H](CO)C(=O)N[C@@H](CC(C)C)C(=O)N[C@@H](CO)C(=O)NCC(N)=O)C(C)C [GVVTDLLKTAGKLLGNLVGSLSG]
MIC (Vibrio cholerae): 25 µM (≈ 55.3 µg/mL)
MIC [27]: ≥ 100 µM

MIC (Klebsiella pneumoniae): 25 µM (≈ 76.6 µg/mL)
MIC [30]: ≥ 80 µM
MIC [31]: ≥ 100 µM
MIC [32]: 20 µM (≈ 61.3 µg/mL)
MIC [33]: 20 µM (≈ 61.3 µg/mL)
MIC [34]: 1.6 µM (≈ 4.9 µg/mL)
MIC [35]: 12.5 µM (≈ 38.3 µg/mL)
MIC [36]: 3.1 µM (≈ 9.5 µg/mL)
MIC [29]: 10 µM (≈ 30.6 µg/mL)
MIC [37]: 40 µM (≈ 123 µg/mL)
MIC [38]: 6.25 µM (≈ 19.1 µg/mL)
MIC (Acinetobacter baumannii): 6.25 µM (≈ 19.1 µg/mL)
Structure (SMILES): CC[C@H](C)[C@H](N)C(=O)N[C@@H](CCCCN)C(=O)N[C@@H](CC(C)C)C(=O)N[C@@H](CO)C(=O)N1CCC[C@H]1C(=O)N[C@@H](CCC(=O)O)C(=O)N[C@H](C(=O)N[C@@H](CCCCN)C(=O)N[C@@H](CC(=O)O)C(=O)N[C@@H](CC(N)=O)C(=O)N[C@@H](CC(C)C)C(=O)N[C@@H](CCCCN)C(=O)N[C@@H](CCCCN)C(=O)N[C@H](C(=O)N[C@@H](CC(C)C)C(=O)N[C@@H](CCCCN)C(=O)NCC(=O)N[C@@H](C)C(=O)N[C@H](C(=O)N[C@@H](CCCCN)C(=O)NCC(=O)N[C@@H](C)C(=O)N[C@H](C(=O)N[C@@H](C)C(=O)N[C@H](C(=O)N[C@@H](C)C(=O)N[C@@H](CCCCN)C(=O)N[C@@H](CCSC)C(=O)N[C@H](C(N)=O)C(C)C)C(C)C)[C@@H](C)CC)[C@@H](C)CC)C(C)C)[C@@H](C)O [IKLSPETKDNLKKVLKGAIKGAIAVAKMV]

MIC [39]: 1380 µM (≈ 1020 µg/mL)
MIC [40]: ≥ 1380 µM
MIC [41]: ≥ 1380 µM
MIC [42]: ≥ 1380 µM
MIC [43]: > 1380 µM
Structure (SMILES): CC[C@H](C)[C@H](N)C(=O)N[C@@H](CCCCN)C(=O)N[C@@H](CCCCN)C(=O)N[C@H](C(=O)N[C@@H](C)C(=O)N[C@@H](CO)C(=O)N[C@H](C(=O)O)C(C)C)C(C)C [IKKVASV]
